In ChEMBL document CHEMBL4387791, “Bioactive Polyketide Derivatives from the Mangrove-Derived Fungus Daldinia eschscholtzii HJ004” (J Nat Prod, 2019):
The source made the active and inactive calls. The rule behind the calls is not given here.

Tests used:
Staphylococcus aureus [1] = assay: Antibacterial activity against methicillin-resistant Staphylococcus aureus ATCC 33591 by microplate assay method; type: functional, organism-based
Vibrio alginolyticus = assay: Antibacterial activity against Vibrio alginolyticus ATCC 17802 by microplate assay method; type: functional, organism-based
[2] = Inhibition of Saccharomyces cerevisiae alpha-glucosidase using PNP-G as substrate incubated for 20 mins followed by substrate addition
Vibrio parahaemolyticus = assay: Antibacterial activity against Vibrio parahaemolyticus ATCC 17749 by microplate assay method; type: functional, organism-based
[3] = tested on: Staphylococcus epidermidis; assay: Antibacterial activity against Staphylococcus albus ATCC 8032 by microplate assay method; type: functional, organism-based
Staphylococcus aureus [4] = assay: Antibacterial activity against Staphylococcus aureus ATCC 25923 by microplate assay method; type: functional, organism-based

Compound: CCc1ccc2c(c1O)C(=O)[C@](O)(CC)[C@@H](O)C2
- Activity (Staphylococcus aureus [1]): inactive
- Activity (Vibrio alginolyticus): inactive
- IC50 [2]: 38 µM
- Activity (Vibrio parahaemolyticus): inactive
- Activity [3]: inactive
- Activity (Staphylococcus aureus [4]): inactive

Compound: CCc1c(OC)cc2c(=O)c(C)c(C)oc2c1O
- Activity (Staphylococcus aureus [1]): inactive
- Activity (Vibrio alginolyticus): inactive
- IC50 [2]: 100 µM
- Activity (Vibrio parahaemolyticus): inactive
- Activity [3]: inactive
- Activity (Staphylococcus aureus [4]): inactive

Compound: COc1cccc2c1C(=O)CC(C)O2 (stereo unspecified)
- Activity (Staphylococcus aureus [1]): inactive
- Activity (Vibrio alginolyticus): inactive
- IC50 [2]: 15 µM
- Activity (Vibrio parahaemolyticus): inactive
- Activity [3]: inactive
- Activity (Staphylococcus aureus [4]): inactive

Compound: Cc1cc2c(c(O)c1C)C(=O)C[C@@H](O)[C@H]2O (relative stereo)
- Activity (Staphylococcus aureus [1]): inactive
- Activity (Vibrio alginolyticus): inactive
- IC50 [2]: 21 µM
- Activity (Vibrio parahaemolyticus): inactive
- Activity [3]: inactive
- Activity (Staphylococcus aureus [4]): inactive

Compound: C/C=C(\C)[C@@H]1OC(=O)C(C)(C)[C@@H](O)[C@H]1C
- Activity (Staphylococcus aureus [1]): inactive
- Activity (Vibrio alginolyticus): inactive
- IC50 [2]: 16 µM
- Activity (Vibrio parahaemolyticus): inactive
- Activity [3]: inactive
- Activity (Staphylococcus aureus [4]): inactive

Compound: CCc1c(O)cc2c(=O)oc(C)c(C)c(=O)c2c1OC
- Activity (Staphylococcus aureus [1]): inactive
- Activity (Vibrio alginolyticus): inactive
- IC50 [2]: 54 µM
- Activity (Vibrio parahaemolyticus): inactive
- Activity [3]: inactive
- Activity (Staphylococcus aureus [4]): inactive

Compound: COc1cc(O)cc2oc(C)c(C)c(=O)c12
- Activity (Staphylococcus aureus [1]): inactive
- Activity (Vibrio alginolyticus): inactive
- IC50 [2]: 13 µM
- Activity (Vibrio parahaemolyticus): inactive
- Activity [3]: inactive
- Activity (Staphylococcus aureus [4]): inactive

Compound: CCc1c(OC)cc2c(c1O)C(=O)[C@H](C)[C@@H](C)[C@@H]2O
- Activity (Staphylococcus aureus [1]): inactive
- Activity (Vibrio alginolyticus): inactive
- IC50 [2]: 35 µM
- Activity (Vibrio parahaemolyticus): inactive
- Activity [3]: inactive
- Activity (Staphylococcus aureus [4]): inactive

Compound: CCCc1cc(=O)c2c(OC)cccc2o1
- Activity (Staphylococcus aureus [1]): inactive
- Activity (Vibrio alginolyticus): inactive
- IC50 [2]: 84 µM
- Activity (Vibrio parahaemolyticus): inactive
- Activity [3]: inactive
- Activity (Staphylococcus aureus [4]): inactive

Compound: C[C@H]1O[C@H](O[C@H]2[C@H](O)[C@@H](O)[C@@H](O[C@H]3[C@H](O)[C@@H](O)C(O)O[C@@H]3CO)O[C@@H]2CO)[C@H](O)[C@@H](O)[C@@H]1N[C@H]1C=C(CO)[C@@H](O)[C@H](O)[C@H]1O (stereo partly specified) [ACARBOSE]
- IC50 [2]: 3 µM

Compound: C/C=C(\C)[C@@H]1OC(=O)C(C)(C)[C@H](O)[C@H]1C
- Activity (Staphylococcus aureus [1]): inactive
- Activity (Vibrio alginolyticus): inactive
- IC50 [2]: 31 µM
- Activity (Vibrio parahaemolyticus): inactive
- Activity [3]: inactive
- Activity (Staphylococcus aureus [4]): inactive

Compound: CC(=O)OC/C=C(\C)[C@@H]1OC(=O)C(C)(C)[C@@H](O)[C@H]1C
- Activity (Staphylococcus aureus [1]): inactive
- Activity (Vibrio alginolyticus): inactive
- IC50 [2]: 240 µM
- Activity (Vibrio parahaemolyticus): inactive
- Activity [3]: inactive
- Activity (Staphylococcus aureus [4]): inactive

Compound: CCc1c(OC)cc2c(c1O)C(=O)[C@H](C)[C@@H](C)[C@H]2O
- Activity (Staphylococcus aureus [1]): inactive
- Activity (Vibrio alginolyticus): inactive
- IC50 [2]: 155 µM
- Activity (Vibrio parahaemolyticus): inactive
- Activity [3]: inactive
- Activity (Staphylococcus aureus [4]): inactive

Compound: C/C(=C\CO)[C@@H]1OC(=O)C(C)(C)[C@@H](O)[C@H]1C
- Activity (Staphylococcus aureus [1]): inactive
- Activity (Vibrio alginolyticus): inactive
- IC50 [2]: 20 µM
- Activity (Vibrio parahaemolyticus): inactive
- Activity [3]: inactive
- Activity (Staphylococcus aureus [4]): inactive

Compound: COc1cccc2c1[C@H](O)CCC2=O
- Activity (Staphylococcus aureus [1]): inactive
- Activity (Vibrio alginolyticus): inactive
- IC50 [2]: 90 µM
- Activity (Vibrio parahaemolyticus): inactive
- Activity [3]: inactive
- Activity (Staphylococcus aureus [4]): inactive

Compound: O=C1CC[C@H](O)c2cccc(O)c21
- Activity (Staphylococcus aureus [1]): inactive
- Activity (Vibrio alginolyticus): inactive
- IC50 [2]: 70 µM
- Activity (Vibrio parahaemolyticus): inactive
- Activity [3]: inactive
- Activity (Staphylococcus aureus [4]): inactive
